Measured values reported in ChEMBL document CHEMBL4376886, “Design, Synthesis, and Evaluation of Novel Enterovirus 71 Inhibitors as Therapeutic Drug Leads for the Treatment of Human Hand, Foot, and Mouth Disease” (J Med Chem, 2020).

Columns and labels:
[1] = Inhibition of capsid protein VP1 in Enterovirus 71 (FY)-Luc infected in human RD cells assessed as reduction in virus-induced cell death preincubated for 24 hrs followed by […] substrate addition and measured after 5 mins by chemiluminescence analysis; assay type: cell-based, Enterovirus A71; details: Enterovirus A
[2] = Cytotoxicity against human RD cells assessed as reduction in cell viability incubated for 24 hrs by MTT assay; details: RD cells
[3] = Acute toxicity in juvenile zebrafish assessed as fatality rate at 50 uM after 24 hrs; details: in vivo
in vivo [4] = details: zebrafish
Description: Acute toxicity in juvenile zebrafish assessed as fatality rate at 150 uM after 24 hrs

[5] = Acute toxicity in juvenile zebrafish assessed as fatality rate at 20 uM after 24 hrs; details: in vivo
in vivo [6] = details: zebrafish; remark: listed apart in the source
Description: Acute toxicity in juvenile zebrafish assessed as fatality rate at 150 uM after 48 hrs

[7] = Acute toxicity in juvenile zebrafish assessed as fatality rate at 200 uM after 48 hrs; details: in vivo
[8] = Acute toxicity in juvenile zebrafish assessed as fatality rate at 50 uM after 48 hrs; details: in vivo
[9] = Acute toxicity in juvenile zebrafish assessed as fatality rate at 100 uM after 48 hrs; details: in vivo
[10] = Acute toxicity in juvenile zebrafish assessed as fatality rate at 20 uM after 48 hrs; details: in vivo
[11] = Acute toxicity in juvenile zebrafish assessed as fatality rate at 200 uM after 24 hrs; details: in vivo
[12] = Acute toxicity in juvenile zebrafish assessed as fatality rate at 100 uM after 24 hrs; details: in vivo
[13] = Acute toxicity in juvenile zebrafish assessed as pericarditis at 100 uM after 24 hrs; parameters: species or system Danio rerio; details: in vivo

Row | SMILES | EC50 [1] [nM] | CC50 at 24 h [2] [µM] | mortality at 24 h, 50 µM [3] [%] | mortality at 24 h, 150 µM (in vivo [4]) [%] | mortality at 24 h, 20 µM [5] [%] | mortality at 48 h, 150 µM (in vivo [6]) [%] | mortality at 48 h, 200 µM [7] [%] | mortality at 48 h, 50 µM [8] [%] | mortality at 48 h, 100 µM [9] [%] | mortality at 48 h, 20 µM [10] [%] | mortality at 24 h, 200 µM [11] [%] | mortality at 24 h, 100 µM [12] [%] | Activity [13]
1 | CCc1nc(-c2cc(C)c(OCCC(C)CCN3CCN(c4ccnc(N)c4)C3=O)c(C)c2)no1 (stereo not given) | > 25 | 15.7 | – | – | – | – | – | – | – | – | – | – | –
2 | CCO/N=C/c1ccc(OCCC(C)CCN2CCN(c3ccnc(O)c3)C2=O)cc1 (stereo not given) | > 25 | > 100 | – | – | – | – | – | – | – | – | – | – | –
3 | CCO/N=C/c1ccc(OCCC(C)CCN2CCN(c3cccc(N)c3)C2=O)cc1 (stereo not given) | > 25 | > 100 | – | – | – | – | – | – | – | – | – | – | –
4 | CCc1nc(-c2ccc(OCCC(C)CCN3CCN(c4ccnc(N)c4)C3=O)cc2)no1 (stereo not given) | 0.0084 | > 100 | 10 | 80 | 40 | 100 | 100 | 100 | 100 | 60 | 100 | 30 | –
5 | CCO/N=C/c1ccc(OCCC(C)CCN2CCN(c3ccccc3)C2=O)cc1 (stereo not given) | 1.12 | > 100 | 100 | 100 | 100 | 100 | 100 | 100 | 100 | 100 | 100 | 100 | –
6 | CCO/N=C/c1cc(C)c(OCCC(C)CCN2CCN(c3ccnc(N)c3)C2=O)c(C)c1 (stereo not given) | > 25 | 12.8 | – | – | – | – | – | – | – | – | – | – | –
7 | CC(CCOc1ccc(/C=N/O)cc1)CCN1CCN(c2ccnc(N)c2)C1=O (stereo not given) | > 25 | > 100 | – | – | – | – | – | – | – | – | – | – | –
8 | CCCc1nc(-c2ccc(OCCC(C)CCN3CCN(c4ccnc(N)c4)C3=O)cc2)no1 (stereo not given) | 0.15 | > 100 | 100 | 100 | 40 | 100 | 100 | 100 | 100 | 60 | 100 | 100 | –
9 | CC(CCOc1ccc(-c2noc(C(F)(F)F)n2)cc1)CCN1CCN(c2ccnc(N)c2)C1=O (stereo not given) | 0.537 | 48.1 | 30 | 80 | 0 | 100 | 100 | 50 | 100 | 0 | 100 | 70 | –
10 | CC(=O)Nc1cc(N2CCN(CCCCCOc3ccc(-c4noc(C)n4)cc3)C2=O)ccn1 | > 25 | > 100 | – | – | – | – | – | – | – | – | – | – | –
11 | CC(CCN1CCN(Cc2ccccc2)CC1)CCN1CCN(c2ccnc(N)c2)C1=O (stereo not given) | > 25 | > 100 | – | – | – | – | – | – | – | – | – | – | –
12 | CCONCc1ccc(OCCC(C)CCN2CCN(c3ccnc(N)c3)C2=O)cc1 (stereo not given) | 0.0119 | 7.37 | – | – | – | – | – | – | – | – | – | – | –
13 | CCO/N=C/c1ccc(OCCCCCN2CCN(c3ccnc(N)c3)C2=O)cc1 | 0.072 | 59 | 0 | 100 | 20 | 100 | 100 | 100 | 100 | 20 | 100 | 100 | –
14 | CCCc1nc(-c2cc(C)c(OCCC(C)CCN3CCN(c4ccnc(N)c4)C3=O)c(C)c2)no1 (stereo not given) | > 25 | 14.1 | – | – | – | – | – | – | – | – | – | – | –
15 | Cc1cc(-c2noc(C(F)(F)F)n2)cc(C)c1OCCC(C)CCN1CCN(c2ccnc(N)c2)C1=O (stereo not given) | > 25 | > 100 | – | – | – | – | – | – | – | – | – | – | –
16 | CCO/N=C/c1ccc(OCCC(C)CCN2CCN(c3ccnc(OC)c3)C2=O)cc1 (stereo not given) | 10 | > 100 | 100 | 100 | 100 | 100 | 100 | 100 | 100 | 100 | 100 | 100 | –
17 | CCO/N=C/c1ccc(OCC#CCN2CCN(c3ccnc(N)c3)C2=O)cc1 | > 25 | > 100 | – | – | – | – | – | – | – | – | – | – | –
18 | Cc1nc(-c2ccc(OCCC(C)CCN3CCN(c4ccnc(N)c4)C3=O)cc2)no1 (stereo not given) | 0.0061 | 66.1 | 0 | 10 | 0 | 100 | 100 | 0 | 100 | 0 | 100 | 0 | –
19 | CCO/N=C/c1ccc(OCCCCN2CCN(c3ccnc(N)c3)C2=O)cc1 | > 25 | > 100 | – | – | – | – | – | – | – | – | – | – | –
20 | CC(CCOc1ccc(-c2noc(C(C)(C)C)n2)cc1)CCN1CCN(c2ccnc(N)c2)C1=O (stereo not given) | 0.0092 | 55 | 0 | 100 | 0 | 100 | 100 | 0 | 100 | 0 | 100 | 80 | Toxic
21 | Cc1nc(-c2cc(C)c(OCCC(C)CCN3CCN(c4ccnc(N)c4)C3=O)c(C)c2)no1 (stereo not given) | > 25 | 28.8 | – | – | – | – | – | – | – | – | – | – | –
22 | CCONC(=O)c1ccc(OCCC(C)CCN2CCN(c3ccnc(N)c3)C2=O)cc1 (stereo not given) | > 25 | > 100 | – | – | – | – | – | – | – | – | – | – | –
